In experiment [1] the test system is P388. The experiment can be described thus: Cytotoxicity against mouse P388 cells. The class given is functional.
In experiment [2] the test system is P388. As to the kind of experiment: In vivo antitumor activity against mouse P388 lymphocytic leukemia in mouse at 1.4 mg/kg. The class given is functional.

The results in this text go back to ChEMBL document CHEMBL1151620, “Rollinone, a new cytotoxic acetogenin from Rollinia papilionella” (1984).

Each structure is given as a SMILES string.

The molecule `CCCCCCCCCCC(O)C1CCC(C2CCC(C(O)C(=O)CCCCCCCCCCCC3CC(C)OC3=O)O2)O1` (configuration not stated) [ROLLINONE] came in with an ED50 in the experiment with P388 [1] of under 1 ×10⁻⁵ ug/ml. The molecule further came in with a T/C with P388 [2] of 147%.
